Assay results published in the RepoRT retention time repository (doi:10.1021/acs.analchem.2c02893).

Assay: RP, Thermo Scientific Acclaim RSLC 120 C18, 100 × 2.1 mm, 2.2 µm, 30 °C, 0.2 mL/min, estimated dead time 1.1 min; A: 90% water + 10% methanol + 0.01% formic acid + 5 mM ammonium formate, pH 3.61; B: methanol + 0.01% formic acid + 5 mM ammonium formate, pH 3.61; gradient (min/%B) 0/1 1/1 2/39 13/99.9 15/99.9 15.1/1 20.1/1
Conditions: stereoisomer not certain

| SMILES | LC retention time |
| --- | --- |
| CN1CCCCC(n2cc(C(=O)c3cccc4ccccc34)c3ccccc32)C1 (stereo unspecified) [AM-1220-Azepane] | 8.61 min |
| CSc1ccc2c(c1)N(CCC1CCCCN1C)c1ccccc1S2=O (stereo unspecified) [Thioridazine-5-sulfoxide] | 6.64 min |
| N=C1CN(O)C(c2ccccc2)=c2cc(Cl)ccc2=N1 [Chlordiazepoxide-Desmethyl] | 8.27 min |
| CCCCc1oc2ccc(NS(C)(=O)=O)cc2c1C(=O)c1ccc(OCCCN(CCCC)CCCC)cc1 [Dronedarone] | 10.1 min |
| Cn1cc[nH]c1=S [Methimazole] | 2.61 min |
| CN=CNc1ccc(C)cc1C [N'-(2 4-Dimethylphenyl)-N-methylformamidine] | 4.44 min |
| CC(O)CCn1cc(C(=O)c2cccc3ccccc23)c2ccccc21 (stereo unspecified) [JWH-073-M-3-OH-Butyl] | 9.91 min |
| CON(C)C(=O)Nc1ccc(Cl)c(Cl)c1 [Linuron] | 9.3 min |
| O=C(Nc1ccccc1)Nc1cnns1 [Thidiazuron] | 7.17 min |
| CCCc1nc(C)c2c(=O)[nH]c(-c3cc(S(=O)(=O)N4CCCCC4)ccc3OCC)nn12 [Vardenafil-Pseudo] | 10.6 min |
| CCCCCc1cc(O)c2c(c1)OC(C)(C)C1CCC(CO)=CC21 (stereo unspecified) [THC-OH. 11-OH-THC] | 12.5 min |
| Nc1ccc(S(=O)(=O)Nc2nccs2)cc1 [Sulfathiazole] | 3.63 min |
| CC(Cc1ccc2c(c1)OCO2)N(C)C (stereo unspecified) [MDDMA] | 4.08 min |
| Cc1cc(Cl)ccc1OCCCC(=O)O [MCPB] | 10.1 min |
| CC(C)(C)CC(C)(C)c1ccc(OCCOCC[N+](C)(C)Cc2ccccc2)cc1 [Benzethonium] | 11.6 min |
| COc1ccccc1OCCNCC(O)COc1cccc2[nH]c3ccccc3c12 (stereo unspecified) [Carvedilol] | 6.91 min |
| O=C1CN=C(C2=CCCCC2)c2cc(Cl)ccc2N1 [Tetrazepam-Nor] | 10.1 min |
| CCCCCn1cc(C(=O)c2ccc(Br)c3ccccc23)c2ccccc21 [JWH-387] | 13.4 min |

| SMILES | LC retention time |
| --- | --- |
| CC1(C)CCC(Cc2ccc(Cl)cc2)C1(O)Cn1cncn1 (stereo unspecified) [Metconazole] | 11.2 min |
| CC1(C)OCC2OC3(C(=O)O)OC(C)(C)OC3C2O1 (stereo unspecified) [Dikegulac] | 4.76 min |
| O=C1CN=C(c2ccccc2)c2c(sc3c2CCCC3)N1 [Bentazepam] | 9.49 min |
| CSc1nc(NC2CC2)nc(NC(C)(C)C)n1 [Irgarol] | 10.5 min |
| NC(=O)N1c2ccccc2C=Cc2ccccc21 [Carbamazepine] | 7.36 min |
| CC(C)N(Cc1ccccc1)C(=O)C(C)(C)C [Tebutame] | 10.2 min |
| Cc1c(C(=O)NN2CCCCC2)nn(-c2ccc(Cl)cc2Cl)c1-c1ccc(Cl)cc1 [Rimonabant] | 12.8 min |
| Cc1cn(C2CC(N=[N+]=[N-])C(CO)O2)c(=O)[nH]c1=O (stereo unspecified) [Zidovudine] | 4.56 min |
| CCOP(=S)(OCC)SCSC(C)(C)C [Terbufos] | 12.2 min |
| COC1=CC(=O)OC(C=Cc2ccccc2)C1 (stereo unspecified) [Kavain] | 8.32 min |
| CN(C)C(=O)Nc1ccc(Cl)c(Cl)c1 [Diuron] | 8.64 min |
| CCCCN(CC)C(=O)SCCC [Pebulate] | 11.5 min |
| Cn1cc(-c2ccccc2)c(=O)c(-c2cccc(C(F)(F)F)c2)c1 [Fluridone] | 8.82 min |
| CNC(=O)Oc1cc(C)c(SC)c(C)c1 [Methiocarb (Mercaptodimethur)] | 9.34 min |
| CCOP(=S)(Oc1ccc(C#N)cc1)c1ccccc1 (stereo unspecified) [Cyanofenphos] | 10.9 min |
| CC(C)(C(=O)c1cccnc1)c1cccnc1 [Metyrapone] | 6.21 min |
| COC(=O)N(C(=O)N1COC2(C(=O)OC)Cc3cc(Cl)ccc3C2=N1)c1ccc(OC(F)(F)F)cc1 (stereo unspecified) [Indoxacarb] | 11.6 min |
| COc1ccc(CNc2nc(N3CCCC3CO)ncc2C(=O)NCc2ncccn2)cc1Cl (stereo unspecified) [Avanafil] | 8.76 min |
